Literature values as cited in article PMC12308805, “Ultrahigh-Throughput Virtual Screening Strategies against PPI Targets: A Case Study of STAT Inhibitors” (Journal of Chemical Information and Modeling, 2025).
Square brackets hold non-standard residues; d marks the D form. Peptide text beside a SMILES is read from it. * marks the point of attachment. pY = N[C@@H](Cc1ccc(OP(=O)(O)O)cc1)C(=O)O; NH(1R-phenylethyl) = C[C@@H](N*)c1ccccc1; X4 = O=C(/C=C/c1ccc(OP(=O)(O)O)cc1)*; Isobutyryl = CC(C)C(=O)*

tested on: STAT3; conditions: sheet 6QHD_actives_decoys, retrospective screening set for STAT3 SH2 domain (PDB 6QHD); decoys are presumed inactives, not tested; ref DUD-E; cited from earlier work

Structure (SMILES) | Type
O=C1N=C([C@]2(C3=Nc4nnc(/N=C(\O)Nc5ccc(Cl)cc5)n4C3=O)Cc3ccccc3C2=O)n2c(/N=C(\O)Nc3ccc(Cl)cc3)nnc21 [Decoy896] | Inactive (Decoy)
CC1=CC(=O)CC(C)(C)[C@H]1/C=C/[C@@H](C)O[C@@H]1O[C@H](CO)[C@@H](O)[C@H](O)[C@H]1O[C@@H]1OC[C@](O)(CO)[C@H]1O [Decoy772] | Inactive (Decoy)
CC(=C\C(=O)O)/C=C(\C)C[C@@H](C)CCCC[C@H](O)[C@@H](CO)C(=O)OC[C@H]1O[C@@H](O)[C@@H](O)[C@@H](O)[C@H]1O [Decoy876] | Inactive (Decoy)
CCN(CC)S(=O)(=O)c1ccc(OC)c(NC(=O)COc2cc(C)ccc2C(N)=O)c1 [Decoy867] | Inactive (Decoy)
Cc1nn(-c2cc(Cl)c(S(=O)(=O)O)cc2Cl)c(O)c1/N=N/c1cccc(S(=O)(=O)O)c1 [Decoy763] | Inactive (Decoy)
COc1ccc(CNc2nc(NCc3ccc(OC)c(OC)c3)n(C(=O)c3ccc(C(C)(C)C)cc3)n2)cc1OC [Decoy921] | Inactive (Decoy)
CN(Cc1cnc2nc(N)nc(N)c2n1)c1ccc(C(=O)N[C@H](CCC(=O)NCCNC(=O)CCCC[C@@H]2SC[C@@H]3NC(=O)N[C@@H]32)C(=O)O)cc1 [Decoy821] | Inactive (Decoy)
CCN(CC)c1ccc(NC(=S)NC(=O)c2ccco2)cc1S(=O)(=O)Nc1ccc(OC)cc1 [Decoy769] | Inactive (Decoy)
CCN(CC)S(=O)(=O)c1ccc(NC(=O)CSc2n[nH]c(N/N=C/c3ccccc3F)n2)cc1 [Decoy890] | Inactive (Decoy)
N[C@@H](CCCC[n+]1cc(CC[C@H](N)C(=O)O)cc(CC[C@H](N)C(=O)O)c1CCC[C@H](N)C(=O)O)C(=O)[O-] [Decoy841] | Inactive (Decoy)
COc1ccc(N/C(=N/C(=O)c2ccc(OC)c(OC)c2)NCCc2c(C)nn(C)c2C)cc1OC [Decoy827] | Inactive (Decoy)
CNC(=O)[C@H](CC(C)C)NC(=O)[C@H](Cc1cnc[nH]1)NC(=O)[C@@H](C)NC(=O)[C@@H](NC(=O)[C@H](C)NC(=O)[C@H](Cc1c[nH]c2ccccc12)NC(=O)[C@H](Cc1cnc[nH]1)NC(=O)C(C)C)C(C)C [Decoy806] (Isobutyryl-HWAV[dA]HL-NHMe) | Inactive (Decoy)
O=C(O)c1ccccc1Nc1ccc(C(F)(F)F)cc1Nc1ccc(CNCc2c[nH]c(=O)[nH]c2=O)cc1C(=O)O [Decoy840] | Inactive (Decoy)
COc1ccc(CCN/C(=N/c2nc(C)cc(C)n2)NS(=O)(=O)c2ccc(Br)cc2)cc1OC [Decoy898] | Inactive (Decoy)
CO[C@@H]1[C@H](O)[C@H](OC[C@H]2O[C@@H](O[C@@H]3CC[C@]4(C)[C@H](CC[C@@H]5[C@@H]4CC[C@@]4(C)[C@@H](C6=CC(=O)OC6)CC[C@]54O)C3)[C@@H](O)[C@@H](O)[C@H]2O)O[C@@H](C)[C@@H]1O [Decoy926] | Inactive (Decoy)
CCOC(=O)CCCCC(=O)c1[nH]c(=O)[nH]c1CSc1nnc2c3ccccc3n(CCc3ccccc3)c2n1 [Decoy938] | Inactive (Decoy)

same assay, conditions: sheet 6QHD_actives_decoys; known STAT3 actives of the retrospective screening set; ref ChEMBL / literature; cited from earlier work

Structure (SMILES) | Type (known STAT3 active)
NC(=O)C1CCN(C(=O)[C@@H]2Cc3cccc4c3N2C(=O)[C@@H](NC(=O)/C=C/c2ccc(OP(=O)(O)O)cc2)CC4)C1 (some centres unmarked) [CHEMBL515762] | Active
CC(=O)N[C@@H](Cc1ccc(OP(=O)(O)O)cc1)C(=O)N[C@@H](CC(C)C)C(=O)N1CCC[C@H]1C(=O)N[C@H](CCC(N)=O)C(N)=O [CHEMBL160658] (Ac-[pY]LP[dQ]-NH2) | Active
CC(=O)N[C@@H](Cc1ccc(OP(=O)(O)O)cc1)C(=O)N[C@@H](CC(C)C)C(=O)N1CCC[C@H]1C(=O)N[C@@H](CCC(N)=O)C(=O)N[C@H](C)c1ccccc1 [CHEMBL193433] (Ac-[pY]LPQ-{NH(1R-phenylethyl)}) | Active
CC(C)C[C@H](NC(=O)/C=C/c1ccc(OP(=O)(O)O)cc1)C(=O)N1CCC[C@H]1C(=O)N[C@@H](CCC(N)=O)C(=O)N[C@H](C(N)=O)[C@@H](C)O [CHEMBL470227] (X4-LPQT-NH2) | Active

same assay, conditions: sheet 6QHD_actives_decoys; retrospective screening set for STAT3 SH2 domain (PDB 6QHD); […]; ref DUD-E; cited from earlier work

Structure (SMILES) | Type
O=[N+]([O-])c1ccc(S(=O)(=O)Nc2cccc(NS(=O)(=O)c3ccc([N+](=O)[O-])cc3)c2)cc1 [Decoy459] | Inactive (Decoy)
CCCCCC[C@H]1C(=O)O[C@@H](C)[C@@H](NC(=O)c2cccc(NC=O)c2O)C(=O)O[C@@H](C)[C@H]1OC(=O)CCC [Decoy385] | Inactive (Decoy)
CC[C@H](C)N1C(=O)NC(=O)/C(=C/Nc2ccc3c(c2)C[C@]2(C(=O)NC(=O)N=C2O)[C@H]2CN(C)CCN32)C1=O [Decoy502] | Inactive (Decoy)
Cc1cc(NS(=O)(=O)c2ccc(NC(=S)NC(=O)COc3ccc([N+](=O)[O-])cc3)cc2)no1 [Decoy494] | Inactive (Decoy)
COc1cc(-n2c(O)c([C@H]3OC(=O)c4c3ccc(OC)c4OC)c(O)nc2=S)cc(OC)c1OC [Decoy716] | Inactive (Decoy)

same assay, conditions: sheet 6QHD_actives_decoys; retrospective screening set for STAT3 SH2 domain (PDB 6QHD); decoys generated with DUD-E and presumed inactive, not tested; ref DUD-E; cited from earlier work

Structure (SMILES) | Type
CCOc1ccc(S(=O)(=O)NC[C@@H](c2cccnc2)S(=O)(=O)c2ccc(OCC)cc2)cc1 [Decoy534] | Inactive (Decoy)
COC(=O)[C@@H]1O[C@H](OC/C(=N/NC(N)=O)[C@H]2CC[C@@H]3[C@@H]4CC[C@@H]5C[C@H](OC(C)=O)CC[C@@]5(C)[C@H]4[C@H](O)C[C@@]23C)[C@@H](OC(C)=O)[C@H](OC(C)=O)[C@H]1OC(C)=O [Decoy498] | Inactive (Decoy)
CC[C@H](C)[C@H](NC(=O)CNC(=O)CCc1c(C)c2cc3c(C)c(C)oc3c(C)c2oc1=O)C(=O)NCCCCCC(=O)O [Decoy720] | Inactive (Decoy)
Nc1ccc2cc(S(=O)(=O)O)cc(O)c2c1/N=N/c1ccccc1S(=O)(=O)NCC1CCCCC1 [Decoy501] | Inactive (Decoy)
C=CCn1c(SCC(=O)Nc2sc(C(=O)OCC)c(C)c2C(=O)OCC)nc2sc3c(c2c1=O)CCCC3 [Decoy554] | Inactive (Decoy)
Cc1cc(C)n(CCCNC(=O)c2cc(=O)[nH]c3ccc(S(=O)(=O)N4CCOCC4)cc23)n1 [Decoy597] | Inactive (Decoy)
COC(=O)c1sc(S(=O)(=O)NCC(=O)OCC(=O)Nc2cccc(C#N)c2)c(C(=O)OC)c1C [Decoy364] | Inactive (Decoy)
COC(=O)CNC(=O)c1ccc(NC(=O)c2nc(NCc3ccco3)ncc2Cl)cc1 [Decoy529] | Inactive (Decoy)
COc1ccccc1NS(=O)(=O)c1cccc(C(=O)NNC(=O)CCn2c(C)csc2=O)c1 [Decoy725] | Inactive (Decoy)
CC(=O)O[C@@H]1[C@@H](O)[C@@H](O[C@@H](C/N=C/c2c(O)cc(O)c3ccccc23)[C@@H](CO)O[C@H](O)C/N=C/c2c(O)cc(O)c3ccccc23)O[C@@H](CO)[C@H]1O [Decoy475] | Inactive (Decoy)
COc1cc(-c2c(-c3cc(Br)c(O)c(OC)c3)oc(/C=N/NC(=O)C[N+](C)(C)C)c2[N+](=O)[O-])cc(Br)c1[O-] [Decoy556] | Inactive (Decoy)
COc1ccc(CCC(=O)O)c([C@H](CC(=O)O)C(=O)O)c1OS(=O)(=O)c1ccc(C)cc1 [Decoy549] | Inactive (Decoy)
[H]/N=C(N/C(N)=N\c1nc(C)c2cc(OC)ccc2n1)\C(C(=O)c1ccccc1)=C(/O)OCC [Decoy667] | Inactive (Decoy)
O=C(O)CN(CC(=O)O)[C@H](CCCCNC(=S)Nc1ccc(-c2c3ccc(=O)cc-3oc3cc(O)ccc23)c(C(=O)O)c1)C(=O)O [Decoy503] | Inactive (Decoy)
C=CCn1c(SCC(=O)Nc2sc(C(N)=O)c(C)c2C(=O)OC)nnc1-c1ccc(N(C)C)cc1 [Decoy380] | Inactive (Decoy)
CCn1nc(C)c(CCN(C)c2ncc(C(=O)O)cc2NS(=O)(=O)c2ccc(C(C)=O)cc2)c1C [Decoy465] | Inactive (Decoy)
CCNS(=O)(=O)c1ccc(C)c(C(=O)OCC(=O)NNC(=O)c2ccccc2Cl)c1 [Decoy518] | Inactive (Decoy)
C[C@H](OC(=O)[C@@](O)(Cc1ccc(O)cc1)[C@H](C)O)[C@@](O)(Cc1ccc(O)cc1)C(=O)OCc1ccc(O[C@H]2O[C@@H](CO)[C@@H](O)[C@@H](O)[C@H]2O)cc1 [Decoy621] | Inactive (Decoy)
CCOC(=O)CNC(=O)CN1CCOCCOCCN(CC(=O)NCC(=O)OCC)CCOCCOCC1 [Decoy595] | Inactive (Decoy)
C[N+]1=C(/C=C/C=C2/N(CCCCC(=O)NCCOCCOCCNCCO[C@H]3O[C@@H](CO)[C@@H](O)[C@H](O)[C@H]3O)c3ccccc3C2(C)C)C(C)(C)c2ccccc21 [Decoy589] | Inactive (Decoy)
Cc1cccn2c(=O)c(/C=C3\SC(=S)N(CCCCCC(=O)O)C3=O)c(NCCN3CCOCC3)nc12 [Decoy714] | Inactive (Decoy)
COc1ccccc1OCCNC[C@@H](O)CN(CCOc1ccccc1OC)C[C@H](O)COc1cccc2[nH]c3ccccc3c12 [Decoy707] | Inactive (Decoy)
O=c1ccn([C@@H]2O[C@@H](CO[P@@](=O)(O)O[P@@](=O)(O)OP(=O)(O)O)[C@@H](O)[C@@H]2O)c(=O)[nH]1 [Decoy511] | Inactive (Decoy)
COc1ccc(C[C@@H]2COC(=O)[C@@H]2Cc2ccc(O[C@@H]3O[C@H](CO)[C@@H](O)[C@H](O)[C@H]3O)c(OC)c2)cc1OC [Decoy606] | Inactive (Decoy)
CC(=O)O[C@H]1[C@@H](O)[C@H](CO)O[C@H](O[C@@H](C/N=C/c2c(O)ccc3ccccc23)[C@@H](CO)O[C@H](O)C/N=C/c2c(O)ccc3ccccc23)[C@@H]1O [Decoy442] | Inactive (Decoy)
CC1=C(/C(O)=N/c2ccc(S(N)(=O)=O)cc2)[C@H](c2ccco2)C(C#N)=C(SCC(=O)Nc2cccc(C(F)(F)F)c2)N1 [Decoy409] | Inactive (Decoy)
CCOC(=O)c1sc(NC(=O)CCCS(=O)(=O)c2nc(-c3ccccc3OC)cc(C(F)(F)F)n2)c(C(N)=O)c1C [Decoy482] | Inactive (Decoy)
COC(=O)[C@@H]1O[C@H](OC/C(=N/NC(N)=O)[C@@]2(O)CC[C@@H]3[C@@H]4CC[C@@H]5C[C@H](OC(C)=O)CC[C@@]5(C)[C@H]4C(=O)C[C@]32C)[C@@H](OC(C)=O)[C@H](OC(C)=O)[C@H]1OC(C)=O [Decoy338] | Inactive (Decoy)
